# Laboratory results taken from ChEMBL document CHEMBL1154003, “Synthesis of boronic acid derivatives of tyropeptin: proteasome inhibitors” (Bioorg Med Chem Lett, 2009).
# The source made the active and inactive calls. The rule behind the calls is not given here.
# Tested on: PC-3
# Assay: Cytotoxicity against human PC3 cells
# Assay type: functional, cell-based
row,SMILES,inhibition
1,COc1ccc(CC(C=O)NC(=O)[C@@H](NC(=O)[C@H](Cc2ccc(OC)cc2)NC(=O)Cc2cccc3ccccc23)C(C)C)cc1 (stereo not given in full),Active

# Tested on: not listed separately
# Assay: Inhibition of chymotrypsin-like activity of human 20S proteasome
row,IC50 [nM],SMILES
1,83,COc1ccc(CC(C=O)NC(=O)[C@@H](NC(=O)[C@H](Cc2ccc(OC)cc2)NC(=O)Cc2cccc3ccccc23)C(C)C)cc1 (stereo not given in full)
2,4.4,COc1ccc(C[C@H](NC(=O)Cc2cccc3ccccc23)C(=O)N[C@H](C(=O)N[C@@H](Cc2ccccc2)B(O)O)C(C)C)cc1
3,6.3,COc1ccc(C[C@H](NC(=O)[C@@H](NC(=O)[C@H](Cc2ccc(OC)cc2)NC(=O)Cc2cccc3ccccc23)C(C)C)B(O)O)cc1

# Continued, molecule first:
row,SMILES,IC50 [nM]
1,COc1ccc(C[C@H](NC(=O)[C@@H](NC(=O)[C@@H](N)Cc2ccc(OC)cc2)C(C)C)B(O)O)cc1,130
2,COc1ccc(C[C@H](N)C(=O)N[C@H](C(=O)N[C@@H](Cc2ccccc2)B(O)O)C(C)C)cc1,100
3,COc1ccc(C[C@H](N)C(=O)N[C@H](C(=O)N[C@@H](CC(C)C)B(O)O)C(C)C)cc1,21
4,COc1ccc(C[C@H](NC(=O)Cc2cccc3ccccc23)C(=O)N[C@H](C(=O)N[C@@H](CC(C)C)B(O)O)C(C)C)cc1,2.6
5,CC(C)C[C@H](NC(=O)[C@H](Cc1ccccc1)NC(=O)c1cnccn1)B(O)O [BORTEZOMIB],24

# Tested on: not listed separately
# Assay: Inhibition of peptidylglutamyl-peptide hydrolyzing activity of human 20S proteasome
row,IC50 [nM],SMILES
1,> 40000,COc1ccc(CC(C=O)NC(=O)[C@@H](NC(=O)[C@H](Cc2ccc(OC)cc2)NC(=O)Cc2cccc3ccccc23)C(C)C)cc1 (stereo not given in full)
2,7400,COc1ccc(C[C@H](NC(=O)Cc2cccc3ccccc23)C(=O)N[C@H](C(=O)N[C@@H](Cc2ccccc2)B(O)O)C(C)C)cc1
3,> 40000,COc1ccc(C[C@H](NC(=O)[C@@H](NC(=O)[C@H](Cc2ccc(OC)cc2)NC(=O)Cc2cccc3ccccc23)C(C)C)B(O)O)cc1

# More lines, now with the values behind:
row,SMILES,IC50 [nM]
1,COc1ccc(C[C@H](NC(=O)[C@@H](NC(=O)[C@@H](N)Cc2ccc(OC)cc2)C(C)C)B(O)O)cc1,16000
2,COc1ccc(C[C@H](N)C(=O)N[C@H](C(=O)N[C@@H](Cc2ccccc2)B(O)O)C(C)C)cc1,7700
3,COc1ccc(C[C@H](N)C(=O)N[C@H](C(=O)N[C@@H](CC(C)C)B(O)O)C(C)C)cc1,1400
4,COc1ccc(C[C@H](NC(=O)Cc2cccc3ccccc23)C(=O)N[C@H](C(=O)N[C@@H](CC(C)C)B(O)O)C(C)C)cc1,940
5,CC(C)C[C@H](NC(=O)[C@H](Cc1ccccc1)NC(=O)c1cnccn1)B(O)O [BORTEZOMIB],730

# Tested on: not listed separately
# Assay: Inhibition of trypsin-like activity of human 20S proteasome
row,IC50 [nM],SMILES
1,> 40000,COc1ccc(CC(C=O)NC(=O)[C@@H](NC(=O)[C@H](Cc2ccc(OC)cc2)NC(=O)Cc2cccc3ccccc23)C(C)C)cc1 (stereo not given in full)
2,4600,COc1ccc(C[C@H](NC(=O)Cc2cccc3ccccc23)C(=O)N[C@H](C(=O)N[C@@H](Cc2ccccc2)B(O)O)C(C)C)cc1
3,5600,COc1ccc(C[C@H](NC(=O)[C@@H](NC(=O)[C@H](Cc2ccc(OC)cc2)NC(=O)Cc2cccc3ccccc23)C(C)C)B(O)O)cc1

# More lines, now with the values behind:
row,SMILES,IC50 [nM]
1,COc1ccc(C[C@H](NC(=O)[C@@H](NC(=O)[C@@H](N)Cc2ccc(OC)cc2)C(C)C)B(O)O)cc1,3700
2,COc1ccc(C[C@H](N)C(=O)N[C@H](C(=O)N[C@@H](Cc2ccccc2)B(O)O)C(C)C)cc1,4000
3,COc1ccc(C[C@H](N)C(=O)N[C@H](C(=O)N[C@@H](CC(C)C)B(O)O)C(C)C)cc1,1900
4,COc1ccc(C[C@H](NC(=O)Cc2cccc3ccccc23)C(=O)N[C@H](C(=O)N[C@@H](CC(C)C)B(O)O)C(C)C)cc1,2800
5,CC(C)C[C@H](NC(=O)[C@H](Cc1ccccc1)NC(=O)c1cnccn1)B(O)O [BORTEZOMIB],> 40000
